Our source for the Ki values is paper PMC5372246, “Co-production of hydrogen and ethanol from glucose in Escherichia coli by activation of pentose-phosphate pathway through deletion of phosphoglucose isomerase (pgi) and overexpression of glucose-6-phosphate dehydrogenase (zwf) and 6-phosphogluconate dehydrogenase (gnd)” (Biotechnology for Biofuels, 2017).

Assay [1] deals with T1, Gnd (GE), 6-phosphogluconate dehydrogenase (Escherichia coli, UniProt P00350).
T1 construct: full-length, C-terminal His-tag, Ni-NTA purified from E. coli, 51 kDa on SDS-PAGE
T1 sequence (P00350 1-468): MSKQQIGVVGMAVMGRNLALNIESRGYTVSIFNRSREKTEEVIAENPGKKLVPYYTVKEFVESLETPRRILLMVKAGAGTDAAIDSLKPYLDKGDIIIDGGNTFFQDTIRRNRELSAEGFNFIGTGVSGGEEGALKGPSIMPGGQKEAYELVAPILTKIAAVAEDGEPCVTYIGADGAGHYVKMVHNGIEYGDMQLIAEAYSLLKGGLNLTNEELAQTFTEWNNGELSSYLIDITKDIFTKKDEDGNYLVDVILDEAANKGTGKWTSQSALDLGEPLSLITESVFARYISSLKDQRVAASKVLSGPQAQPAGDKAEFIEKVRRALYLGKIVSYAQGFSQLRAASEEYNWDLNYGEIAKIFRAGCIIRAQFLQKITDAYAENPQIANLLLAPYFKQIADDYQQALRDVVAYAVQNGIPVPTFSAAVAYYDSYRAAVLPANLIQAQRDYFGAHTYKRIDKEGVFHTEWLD
As to the kind of experiment: inhibition of purified enzyme, NADPH formation at […] nm. The format is biochemical.

For assay [2], the target named is T2, Zwf (ZE), glucose-6-phosphate dehydrogenase (Escherichia coli, UniProt P0AC53).
T2 construct: full-length, C-terminal His-tag, Ni-NTA purified from E. coli, 55 kDa on SDS-PAGE
T2 sequence (P0AC53 whole entry): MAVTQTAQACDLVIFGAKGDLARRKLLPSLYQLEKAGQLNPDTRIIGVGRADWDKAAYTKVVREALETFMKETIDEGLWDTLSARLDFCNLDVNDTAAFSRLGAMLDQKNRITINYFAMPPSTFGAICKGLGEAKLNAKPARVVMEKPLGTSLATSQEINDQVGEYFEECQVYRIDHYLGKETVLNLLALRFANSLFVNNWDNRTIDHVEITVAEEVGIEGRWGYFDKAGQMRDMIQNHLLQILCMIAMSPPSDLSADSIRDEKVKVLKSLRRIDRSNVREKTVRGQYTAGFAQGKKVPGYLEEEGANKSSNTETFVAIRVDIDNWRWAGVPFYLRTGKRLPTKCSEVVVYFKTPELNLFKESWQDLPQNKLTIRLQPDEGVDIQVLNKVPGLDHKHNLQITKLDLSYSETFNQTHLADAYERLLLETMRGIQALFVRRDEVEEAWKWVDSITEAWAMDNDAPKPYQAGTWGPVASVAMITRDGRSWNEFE
The description is as above. It counts as biochemical.

The structures appear in SMILES notation.

For the compound `NC(=O)C1=CN([C@@H]2O[C@H](COP(=O)(O)OP(=O)(O)OC[C@H]3O[C@@H](n4cnc5c(N)ncnc54)[C@H](OP(=O)(O)O)[C@@H]3O)[C@@H](O)[C@H]2O)C=CC1` [NADPH], the Ki in assay [1] and in assay [2] was around 40 µM each time.
